Measurements as given in patent US11447505B1, “Pyrrolo[2,3-b]pyridine compounds and their use in the treatment of cancer” (priority 2017, dated 2022).
Like-named read-outs stand apart in the source and are kept apart here.

Legend:
ROCK2 = ROCK2 (Homo sapiens (Human), UniProt O75116); experiment: ROCK2 kinase assay (IMAP fluorescence polarization); assay type: biochemical
Description: MRCKα, MRCKβ, ROCK1 and ROCK2 assays were performed using an IMAP fluorescence polarization assay format (Molecular Devices Inc.). 8-12 nM of each kinase (Life Technologies) was incubated for 60 min at room temperature with 100 nM FAM-S6-ribosomal protein derived peptide (synthesized by Alta Biosciences, University of Birmingham UK) in the presence of 1 μM ATP and 0.5 mM MgCl2 in 20 mM Tris buffer (pH 7.4) containing 0.01% Tween-20 and 1 mM DTT (MRCKα and β); or 1 μM ATP, 10 mM MgCl2 in 20 mM Tris buffer (pH 7.5) containing 0.25 mM EGTA 0.01% Triton X-100 and 1 mM DTT (ROCK1 and ROCK2). Typically, dose response analyses were performed over concentration ranges from 0.005-100 μM. Reactions were stopped by adding 2 assay volumes of 0.25% (v/v) IMAP binding reagent in 1×IMAP binding buffer A (Molecular Devices). After 30 min incubation to allow binding reagent to bind phosphorylated peptide, fluorescence polarization was measured on a Tecan Saphire^2 plate reader at excitation (470 nm) and emission (530 nm) wavelengths.

MRCKβ [1] = target: T1, MRCKβ (Homo sapiens (Human), UniProt Q9Y5S2); experiment: MRCKβ kinase assay (IMAP fluorescence polarization); assay type: biochemical
Source text: (§1) MRCKα, MRCKβ, ROCK1 and ROCK2 Kinase Assays

ROCK1 [2] = target: T2, ROCK1 (Homo sapiens (Human), UniProt Q13464); experiment: biochemical
MRCKβ [3] = target: T1, MRCKβ; experiment: MRCKβ cellular assay (pMLC T18/S19 immunoblot, MDA-MB-231 cells with doxycycline inducible kinase domain); assay type: cell-based
Description: MRCKβ, ROCK1 and ROCK2 Cellular Assays
MDA-MB-231 cells expressing doxycycline inducible ROCK1, ROCK2 or MRCKβ kinase domains were plated at 1.1×10^5 cells per well of a 12 well plate. After 24 hours, cells were treated with 1 μg/ml doxycycline for 18 hours to induce kinase domain expression and then tested over a suitable concentration range with compounds of the invention for 60 minutes. Cells were then washed with PBS and lysed with Tris-SDS lysis Buffer (50 mM Tris-HCl pH7.4, 0.5% (v/v) SDS, 1×PhosStop Inhibitors (04 906 837 001; Roche) and 1×Complete Protease Inhibitors (04 693 124 001; Roche)). Whole cell lysates were clarified by passing through QIAshredder spin columns, separated by SDS-PAGE, and quantitative immunoblotting performed using a LI-COR Odyssey IR scanner to determine pMLC (T18/S19) and α-Tubulin levels.

MRCKα = MRCKα (Homo sapiens (Human), UniProt Q5VT25); experiment: MRCKα kinase assay (IMAP fluorescence polarization); assay type: biochemical
Source text: as §1

ROCK1 [4] = target: T2, ROCK1; settings: read-out: ROCK1 Average Ki; 1 μM ATP
[5] = 1 μM ATP, read-out: ROCK2 Average Ki
[6] = 1 μM ATP, read-out: MRCK-B Average Ki
[7] = MDA-MB-231 cells, doxycycline inducible kinase domain, 60 minutes, pMLC (T18/S19), read-out: Cellular assay - MRCK-b inhibition MEAN
[8] = 1 μM ATP, read-out: MRCK-a Average Ki

T2 sequence (Q13464 2-1354 limits assumed): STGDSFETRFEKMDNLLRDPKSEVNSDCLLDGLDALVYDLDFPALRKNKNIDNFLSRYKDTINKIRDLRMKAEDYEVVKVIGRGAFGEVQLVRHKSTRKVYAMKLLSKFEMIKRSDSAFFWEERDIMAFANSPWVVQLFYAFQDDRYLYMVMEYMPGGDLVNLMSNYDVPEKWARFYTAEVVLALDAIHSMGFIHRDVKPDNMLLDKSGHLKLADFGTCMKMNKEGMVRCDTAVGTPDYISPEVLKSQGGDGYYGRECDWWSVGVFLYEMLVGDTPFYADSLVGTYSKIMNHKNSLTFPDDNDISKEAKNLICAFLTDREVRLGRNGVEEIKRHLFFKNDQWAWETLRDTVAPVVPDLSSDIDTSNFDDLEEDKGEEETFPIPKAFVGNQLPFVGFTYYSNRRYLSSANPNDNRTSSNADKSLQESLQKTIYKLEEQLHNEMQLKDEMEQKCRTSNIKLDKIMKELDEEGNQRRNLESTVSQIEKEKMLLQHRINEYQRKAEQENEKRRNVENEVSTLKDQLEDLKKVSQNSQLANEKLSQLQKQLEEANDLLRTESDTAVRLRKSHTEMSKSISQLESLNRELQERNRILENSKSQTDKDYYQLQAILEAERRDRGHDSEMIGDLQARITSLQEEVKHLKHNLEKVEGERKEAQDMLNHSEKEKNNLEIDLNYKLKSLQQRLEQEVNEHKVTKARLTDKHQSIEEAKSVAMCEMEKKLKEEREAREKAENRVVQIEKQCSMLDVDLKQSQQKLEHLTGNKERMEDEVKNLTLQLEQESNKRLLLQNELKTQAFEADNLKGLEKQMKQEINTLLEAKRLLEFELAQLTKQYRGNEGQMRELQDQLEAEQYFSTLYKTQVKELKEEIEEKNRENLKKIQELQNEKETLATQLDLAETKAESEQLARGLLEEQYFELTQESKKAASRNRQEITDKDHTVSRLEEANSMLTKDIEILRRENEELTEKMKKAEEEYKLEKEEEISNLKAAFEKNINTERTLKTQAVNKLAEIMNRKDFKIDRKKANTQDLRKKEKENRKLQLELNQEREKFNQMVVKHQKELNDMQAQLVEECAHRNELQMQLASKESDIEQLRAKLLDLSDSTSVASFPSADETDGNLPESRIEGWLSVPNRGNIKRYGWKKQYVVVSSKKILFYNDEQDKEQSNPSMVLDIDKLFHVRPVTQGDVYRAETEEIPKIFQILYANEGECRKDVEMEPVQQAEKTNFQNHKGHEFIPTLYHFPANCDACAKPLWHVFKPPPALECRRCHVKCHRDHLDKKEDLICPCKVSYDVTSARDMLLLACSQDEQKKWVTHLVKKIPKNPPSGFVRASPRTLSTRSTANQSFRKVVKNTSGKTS
Chain of ROCK2 (O75116 whole entry): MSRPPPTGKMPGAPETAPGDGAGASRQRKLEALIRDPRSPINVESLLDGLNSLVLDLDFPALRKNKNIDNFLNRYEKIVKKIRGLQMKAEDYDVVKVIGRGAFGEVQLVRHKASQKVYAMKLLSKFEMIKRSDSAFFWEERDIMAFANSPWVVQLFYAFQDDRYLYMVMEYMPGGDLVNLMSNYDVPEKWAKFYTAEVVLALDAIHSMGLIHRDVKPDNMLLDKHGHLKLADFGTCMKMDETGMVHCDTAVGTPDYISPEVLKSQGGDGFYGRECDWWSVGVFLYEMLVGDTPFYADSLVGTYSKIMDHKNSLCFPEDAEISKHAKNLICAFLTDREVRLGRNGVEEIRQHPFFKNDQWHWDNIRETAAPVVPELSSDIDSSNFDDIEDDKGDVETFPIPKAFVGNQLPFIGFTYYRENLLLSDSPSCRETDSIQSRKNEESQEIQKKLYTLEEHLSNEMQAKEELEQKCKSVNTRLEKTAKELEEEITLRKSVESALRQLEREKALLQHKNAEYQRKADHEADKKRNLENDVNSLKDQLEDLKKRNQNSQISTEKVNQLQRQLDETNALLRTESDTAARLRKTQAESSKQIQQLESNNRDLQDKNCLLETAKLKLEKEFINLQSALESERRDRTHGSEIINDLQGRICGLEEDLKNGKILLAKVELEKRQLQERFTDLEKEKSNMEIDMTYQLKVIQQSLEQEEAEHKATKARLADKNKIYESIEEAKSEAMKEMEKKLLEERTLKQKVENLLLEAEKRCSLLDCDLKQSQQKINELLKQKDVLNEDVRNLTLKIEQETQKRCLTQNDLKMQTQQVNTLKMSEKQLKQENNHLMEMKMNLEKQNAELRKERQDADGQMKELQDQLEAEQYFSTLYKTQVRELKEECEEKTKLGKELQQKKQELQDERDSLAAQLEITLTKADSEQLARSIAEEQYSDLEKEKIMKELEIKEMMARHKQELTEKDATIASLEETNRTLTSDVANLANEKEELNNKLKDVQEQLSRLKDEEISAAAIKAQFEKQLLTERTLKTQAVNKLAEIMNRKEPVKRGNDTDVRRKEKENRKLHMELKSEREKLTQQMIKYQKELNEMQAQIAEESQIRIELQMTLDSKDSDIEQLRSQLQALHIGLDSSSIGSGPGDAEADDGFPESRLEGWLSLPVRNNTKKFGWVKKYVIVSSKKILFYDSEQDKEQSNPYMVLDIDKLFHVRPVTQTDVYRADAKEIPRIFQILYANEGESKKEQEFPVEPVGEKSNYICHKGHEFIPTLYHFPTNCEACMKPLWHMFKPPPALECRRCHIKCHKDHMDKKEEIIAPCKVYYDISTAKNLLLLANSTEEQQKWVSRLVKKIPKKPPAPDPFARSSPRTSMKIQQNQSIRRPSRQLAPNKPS
Chain of MRCKα (Q5VT25 whole entry): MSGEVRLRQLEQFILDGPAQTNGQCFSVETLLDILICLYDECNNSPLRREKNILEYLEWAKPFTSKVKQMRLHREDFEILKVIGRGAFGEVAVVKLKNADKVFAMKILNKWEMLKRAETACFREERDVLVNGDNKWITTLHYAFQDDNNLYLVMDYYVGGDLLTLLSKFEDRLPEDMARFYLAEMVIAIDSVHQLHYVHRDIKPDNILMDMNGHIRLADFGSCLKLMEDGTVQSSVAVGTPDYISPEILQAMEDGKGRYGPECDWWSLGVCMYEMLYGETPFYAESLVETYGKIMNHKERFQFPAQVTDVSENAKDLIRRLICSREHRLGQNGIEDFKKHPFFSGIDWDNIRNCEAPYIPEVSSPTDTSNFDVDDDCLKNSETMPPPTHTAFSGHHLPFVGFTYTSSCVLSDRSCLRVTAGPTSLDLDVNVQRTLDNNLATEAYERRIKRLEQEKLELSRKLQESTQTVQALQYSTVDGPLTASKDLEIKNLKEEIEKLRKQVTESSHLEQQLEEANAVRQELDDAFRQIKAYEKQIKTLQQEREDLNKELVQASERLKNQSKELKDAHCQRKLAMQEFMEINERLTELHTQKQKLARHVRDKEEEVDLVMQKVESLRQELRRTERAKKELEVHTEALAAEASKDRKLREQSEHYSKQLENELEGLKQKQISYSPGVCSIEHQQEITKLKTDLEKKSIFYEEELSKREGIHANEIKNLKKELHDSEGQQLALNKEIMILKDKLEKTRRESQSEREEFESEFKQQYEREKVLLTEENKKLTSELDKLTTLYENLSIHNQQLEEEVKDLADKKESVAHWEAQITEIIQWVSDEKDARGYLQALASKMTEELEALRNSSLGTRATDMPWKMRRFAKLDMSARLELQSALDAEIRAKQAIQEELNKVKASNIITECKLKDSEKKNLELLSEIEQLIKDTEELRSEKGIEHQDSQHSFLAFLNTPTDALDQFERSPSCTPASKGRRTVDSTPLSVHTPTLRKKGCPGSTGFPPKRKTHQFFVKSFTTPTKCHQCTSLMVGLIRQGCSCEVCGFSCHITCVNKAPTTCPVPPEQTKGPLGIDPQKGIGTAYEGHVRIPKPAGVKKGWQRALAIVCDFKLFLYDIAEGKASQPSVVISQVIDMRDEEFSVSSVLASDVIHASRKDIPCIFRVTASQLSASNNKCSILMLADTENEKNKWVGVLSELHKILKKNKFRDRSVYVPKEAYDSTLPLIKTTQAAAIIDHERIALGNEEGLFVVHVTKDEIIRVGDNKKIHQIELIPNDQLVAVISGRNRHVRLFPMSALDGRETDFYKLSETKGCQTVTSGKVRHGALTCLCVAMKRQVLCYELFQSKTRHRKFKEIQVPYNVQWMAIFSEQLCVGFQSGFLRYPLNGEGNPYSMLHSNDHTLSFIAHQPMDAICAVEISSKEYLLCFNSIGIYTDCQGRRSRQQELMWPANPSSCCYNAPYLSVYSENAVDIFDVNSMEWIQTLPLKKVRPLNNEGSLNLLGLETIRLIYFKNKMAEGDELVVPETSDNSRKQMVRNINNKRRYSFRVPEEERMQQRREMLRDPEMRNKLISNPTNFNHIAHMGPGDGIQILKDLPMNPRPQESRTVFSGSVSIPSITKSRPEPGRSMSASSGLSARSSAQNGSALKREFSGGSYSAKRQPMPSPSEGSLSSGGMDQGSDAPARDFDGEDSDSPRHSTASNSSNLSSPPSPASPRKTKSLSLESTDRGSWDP

Q: For O[C@@H]1CCCN(c2ccnc3[nH]cc(-c4cncnc4)c23)C1 [Example E100, (3R)-1-(3-pyrimidin-5-yl-1H-pyrrolo[2,3-b]pyridin-4-yl)piperidin-3-ol], which Ki (ROCK2; [5]) is on record?
A: 277 nM

Q: And the Ki (MRCKβ [1]; [6])?
A: 71.3 nM

Q: What about the Ki (ROCK1 [2]) of the same molecule?
A: 505 nM

Q: Which Ki (ROCK2; [5]) does the source give for c1cc(N2CCCC3(CCCCN3)C2)c2c(-c3cnsc3)c[nH]c2n1 (stereo not shown) [Example E114, 4-[4-(1,8-diazaspiro[5.5]undecan-8-yl)-1H-pyrrolo[2,3-b]pyridin-3-yl]isothiazole] here?
A: 6.42 nM

Q: And the IC50 (MRCKβ [3]; [7])?
A: 40.5 nM

Q: And the Ki (MRCKβ [1]; [6])?
A: 0.0813 nM

Q: What about the Ki (ROCK1 [2]) of the same molecule?
A: 18.3 nM

Q: And the Ki (MRCKα; [8])?
A: 0.0683 nM

Q: For c1cc(N2CCC[C@]3(CCCCN3)C2)c2c(-c3ncsn3)c[nH]c2n1 [Example E115, 3-[4-[(6R)-1,8-diazaspiro[5.5]undecan-8-yl]-1H-pyrrolo[2,3-b]pyridin-3-yl]-1,2,4-thiadiazole], which Ki (MRCKβ [1]; [6]) is on record?
A: 2.48 nM

Q: And the Ki (ROCK1 [2])?
A: ≥ 100000 nM

Q: Which results are given for c1cc(-c2c[nH]c3nccc(N4CC[C@@]5(CCCCN5)C4)c23)ncn1 [Example E128, (5S)-2-(3-pyrimidin-4-yl-1H-pyrrolo[2,3-b]pyridin-4-yl)-2,6-diazaspiro[4.5]decane]?
A: Ki (ROCK2; [5]): 4.41 nM; Ki (ROCK1 [4]): 10.6 nM; IC50 (MRCKβ [3]; [7]): 420 nM; Ki (MRCKβ [1]; [6]): 0.0652 nM; Ki (MRCKα; [8]): 0.0317 nM

Q: For c1cc(N2CCC3(CCCCN3)C2)c2c(-c3ncsn3)c[nH]c2n1 (stereo not shown) [Example E129, 3-[4-(2,6-diazaspiro[4.5]decan-2-yl)-1H-pyrrolo[2,3-b]pyridin-3-yl]-1,2,4-thiadiazole], which Ki (ROCK2) is on record?
A: 23.6 nM

Q: What about the IC50 (MRCKβ [3]) of the same molecule?
A: 729 nM

Q: What about the Ki (MRCKβ [1]) of the same molecule?
A: 0.206 nM

Q: What about the Ki (ROCK1 [2]) of the same molecule?
A: 108 nM

Q: And the Ki (MRCKα)?
A: 0.0518 nM

Q: c1csc(-c2c[nH]c3nccc(N4CCC5(CCCCN5)C4)c23)n1 (stereo not shown) [Example E155, 2-[4-(2,6-diazaspiro[4.5]decan-2-yl)-1H-pyrrolo[2,3-b]pyridin-3-yl]thiazole] was tested. Which IC50 (MRCKβ [3]) did it give?
A: 218 nM

Q: And the Ki (MRCKβ [1])?
A: 0.0822 nM

Q: And the Ki (ROCK1 [2])?
A: 79.5 nM

Q: c1cc(-c2c[nH]c3nccc(N4CCCC5(CCCCN5)C4)c23)ncn1 (stereo not shown) [Example E168, 8-(3-pyrimidin-4-yl-1H-pyrrolo[2,3-b]pyridin-4-yl)-1,8-diazaspiro[5.5]undecane] was tested. Which Ki (ROCK2; [5]) did it give?
A: 30.9 nM

Q: What about the Ki (ROCK1 [4]) of the same molecule?
A: 89 nM

Q: And the IC50 (MRCKβ [3]; [7])?
A: < 30 nM

Q: What about the Ki (MRCKβ [1]; [6]) of the same molecule?
A: 0.065 nM

Q: For CC1(N)CCCN(c2ccnc3[nH]cc(-c4cncnc4)c23)C1 (stereo not shown) [Example E178, 3-methyl-1-(3-pyrimidin-5-yl-1H-pyrrolo[2,3-b]pyridin-4-yl)piperidin-3-amine], which Ki (ROCK2; [5]) is on record?
A: 119 nM

Q: And the Ki (ROCK1 [4])?
A: 423 nM

Q: What about the IC50 (MRCKβ [3]; [7]) of the same molecule?
A: 622 nM

Q: And the Ki (MRCKβ [1]; [6])?
A: 0.181 nM

Q: And the Ki (MRCKα; [8])?
A: 0.517 nM

Q: Which results are given for CN1CC[C@@H]2CCN(c3ccnc4[nH]cc(-c5cncnc5)c34)C[C@@H]21 [Example E180, 4-[(3aR,7aR)-1-methyl-3,3a,4,5,7,7a-hexahydro-2H-pyrrolo[2,3-c]pyridin-6-yl]-3-pyrimidin-5-yl-1H-pyrrolo[2,3-b]pyridine]?
A: Ki (ROCK2; [5]): 1580 nM; Ki (MRCKβ [1]; [6]): 124 nM; Ki (ROCK1 [2]): 3420 nM

Q: N#Cc1c[nH]c2nccc(N3CC[C@@H](N)C3)c12 [Example E197, 4-[(3R)-3-aminopyrrolidin-1-yl]-1H-pyrrolo[2,3-b]pyridine-3-carbonitrile] was tested. Which Ki (ROCK2; [5]) did it give?
A: 7 nM

Q: What about the Ki (MRCKβ [1]; [6]) of the same molecule?
A: 8.82 nM

Q: What about the Ki (ROCK1 [2]) of the same molecule?
A: 19.8 nM

Q: Which results are given for CN1CC[C@H]2CN(c3ccnc4[nH]cc(-c5cncnc5)c34)CC[C@H]21 [Example E200, 4-[(3aS,7aR)-1-methyl-3,3a,4,6,7,7a-hexahydro-2H-pyrrolo[3,2-c]pyridin-5-yl]-3-pyrimidin-5-yl-1H-pyrrolo[2,3-b]pyridine]?
A: Ki (ROCK2; [5]): 145 nM; Ki (MRCKβ [1]; [6]): 3.13 nM; Ki (ROCK1 [2]): 196 nM

Q: For CN1CCCN(C(=O)[C@@H]2CCCN2c2ccnc3[nH]cc(C#N)c23)CC1 [Example E201, 4-[(2S)-2-(4-methyl-1,4-diazepane-1-carbonyl)pyrrolidin-1-yl]-1H-pyrrolo[2,3-b]pyridine-3-carbonitrile], which Ki (ROCK2; [5]) is on record?
A: 703 nM

Q: And the Ki (MRCKβ [1]; [6])?
A: 147 nM

Q: And the Ki (ROCK1 [2])?
A: 1050 nM

Q: How did the Ki (ROCK2; [5]) turn out when c1ncc(-c2c[nH]c3nccc(OC[C@@H]4CCCNC4)c23)cn1 [Example E214, 4-[[(3R)-3-piperidyl]methoxy]-3-pyrimidin-5-yl-1H-pyrrolo[2,3-b]pyridine] was run?
A: 32.1 nM

Q: What about the Ki (MRCKβ [1]; [6]) of the same molecule?
A: 1.07 nM

Q: What about the Ki (ROCK1 [2]) of the same molecule?
A: 42 nM

Q: With c1ncc(-c2c[nH]c3nccc(OC[C@H]4CCCNC4)c23)cn1 [Example E218, 4-[[(3S)-3-piperidyl]methoxy]-3-pyrimidin-5-yl-1H-pyrrolo[2,3-b]pyridine] as the molecule, how does the Ki (ROCK2; [5]) read?
A: 17.6 nM

Q: What about the Ki (MRCKβ [1]; [6]) of the same molecule?
A: 1.15 nM

Q: And the Ki (ROCK1 [2])?
A: 18.6 nM

Q: And the Ki (MRCKα; [8])?
A: 0.189 nM

Q: How did the Ki (ROCK2; [5]) turn out when CN1CCC[C@@H](COc2ccnc3[nH]cc(-c4cncnc4)c23)C1 [Example E224, 4-[[(3R)-1-methyl-3-piperidyl]methoxy]-3-pyrimidin-5-yl-1H-pyrrolo[2,3-b]pyridine] was run?
A: 102 nM

Q: And the Ki (MRCKβ [1]; [6])?
A: 3.29 nM

Q: And the Ki (ROCK1 [2])?
A: 152 nM

Q: And the Ki (MRCKα; [8])?
A: 1.91 nM
